Measurements published in ChEMBL document CHEMBL1201862, “PubChem BioAssay data set” (2004).
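Step 1: Grow cells in 96-well plates. Step 2: Expose to compound for 48 hours at 5 concentrations. Step 3: Interpolate endpoints linearly; if unreached, use highest concentration. GI50 is the concentration that inhibits growth by half.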 Active and inactive are the calls of the source. No stated cut-off is given here; in the data, active = GI50 up to about 1.1 µM and inactive = higher. Residues, ends and D or L forms follow the SMILES beside them. Groups on a side chain read outwards from the residue. *: point of attachment. Cbz = O=C(OCc1ccccc1)*; Boc = CC(C)(C)OC(=O)*

Key:
Test in all cases: inhibition of tumour cell growth, NCI panel, 48 h
[1] = test system: CAKI-1
[2] = test system: HCC 2998
[3] = test system: HCT-116
[4] = test system: HOP-62
[5] = test system: LOX IMVI
[6] = test system: MDA-N
[7] = test system: Malme-3M
[8] = test system: NCI-H226
[9] = test system: OVCAR-5
[10] = test system: OVCAR-8
[11] = test system: PC-3
[12] = test system: SK-MEL-2
[13] = test system: SNB-75
[14] = test system: SW-620
[15] = test system: UACC-62
[16] = test system: A498
[17] = test system: COLO 205
[18] = test system: NCI/ADR-RES

CC(C)(C)OC(=O)NC(CCCCNC(=O)CNC(=O)OCc1ccccc1)C(=O)NC(CCCCNC(=O)CNC(=O)OCc1ccccc1)C(=O)NC(CCCCNC(=O)CNC(=O)OCc1ccccc1)C(=O)NC(CCCCNC(=O)CNC(=O)OCc1ccccc1)C(=O)O (centres undefined) (Boc-K([Gly-Cbz])K([Gly-Cbz])K([Gly-Cbz])K([Gly-Cbz])-OH; configuration not given here)
GI50 [1]: > 100 µM (inactive) | GI50 [2]: > 100 µM (inactive) | GI50 [3]: > 100 µM (inactive) | GI50 [4]: > 100 µM (inactive) | GI50 [5]: > 100 µM (inactive) | GI50 [6]: > 100 µM (inactive) | GI50 [7]: > 100 µM (inactive) | GI50 [8]: > 100 µM (inactive) | GI50 [9]: > 100 µM (inactive) | GI50 [10]: > 100 µM (inactive) | GI50 [11]: > 100 µM (inactive) | GI50 [12]: > 100 µM (inactive) | GI50 [13]: > 100 µM (inactive) | GI50 [14]: > 100 µM (inactive) | GI50 [15]: > 100 µM (inactive)

COC(=O)N/N=C(\C)C(CN1CCOCC1)C(c1ccccc1)c1cc2ccccc2oc1=O (centres undefined)
GI50 [16]: > 100 µM (inactive) | GI50 [1]: > 100 µM (inactive) | GI50 [17]: 52.6 µM (inactive) | GI50 [2]: > 100 µM (inactive) | GI50 [3]: > 100 µM (inactive) | GI50 [4]: > 100 µM (inactive) | GI50 [5]: > 100 µM (inactive) | GI50 [7]: 62.5 µM (inactive) | GI50 [8]: > 100 µM (inactive) | GI50 [18]: 55.8 µM (inactive) | GI50 [9]: > 100 µM (inactive) | GI50 [10]: > 100 µM (inactive) | GI50 [11]: > 100 µM (inactive) | GI50 [12]: > 100 µM (inactive) | GI50 [13]: > 100 µM (inactive) | GI50 [14]: > 100 µM (inactive) | GI50 [15]: > 100 µM (inactive)

CC1CCC(C(C)C)C(OC(=O)NCn2cc(-c3ccccc3)nn2)C1 (centres undefined)
GI50 [1]: > 100 µM (inactive) | GI50 [17]: > 100 µM (inactive) | GI50 [2]: 85.1 µM (inactive) | GI50 [3]: > 100 µM (inactive) | GI50 [4]: 25.6 µM (inactive) | GI50 [5]: > 100 µM (inactive) | GI50 [7]: > 100 µM (inactive) | GI50 [8]: 75.2 µM (inactive) | GI50 [18]: > 100 µM (inactive) | GI50 [9]: > 100 µM (inactive) | GI50 [10]: 75.5 µM (inactive) | GI50 [11]: > 100 µM (inactive) | GI50 [12]: > 100 µM (inactive) | GI50 [13]: 25.6 µM (inactive) | GI50 [14]: > 100 µM (inactive)

O=CNNC(=O)Nc1cccc2ccccc12
GI50 [17]: > 100 µM (inactive) | GI50 [2]: > 100 µM (inactive) | GI50 [3]: > 100 µM (inactive) | GI50 [4]: > 100 µM (inactive) | GI50 [7]: > 100 µM (inactive) | GI50 [8]: 67.1 µM (inactive) | GI50 [18]: > 100 µM (inactive) | GI50 [9]: > 100 µM (inactive) | GI50 [10]: > 100 µM (inactive) | GI50 [13]: > 100 µM (inactive) | GI50 [14]: > 100 µM (inactive) | GI50 [15]: > 100 µM (inactive)

COC(=O)c1cccc(COc2ccc([N+](=O)[O-])cc2Cl)c1
GI50 [16]: 36.5 µM (inactive) | GI50 [1]: 56 µM (inactive) | GI50 [17]: > 100 µM (inactive) | GI50 [3]: > 100 µM (inactive) | GI50 [4]: > 100 µM (inactive) | GI50 [5]: 85.5 µM (inactive) | GI50 [7]: > 100 µM (inactive) | GI50 [8]: 43.2 µM (inactive) | GI50 [18]: > 100 µM (inactive) | GI50 [9]: > 100 µM (inactive) | GI50 [10]: > 100 µM (inactive) | GI50 [11]: > 100 µM (inactive) | GI50 [12]: > 100 µM (inactive) | GI50 [13]: > 100 µM (inactive) | GI50 [14]: > 100 µM (inactive) | GI50 [15]: 43.4 µM (inactive)

COc1cc(OC)cc(Oc2nc3ccccc3nc2C(=O)O)c1
GI50 [16]: > 100 µM (inactive) | GI50 [1]: > 100 µM (inactive) | GI50 [17]: > 100 µM (inactive) | GI50 [2]: > 100 µM (inactive) | GI50 [3]: > 100 µM (inactive) | GI50 [4]: > 100 µM (inactive) | GI50 [5]: > 100 µM (inactive) | GI50 [7]: > 100 µM (inactive) | GI50 [8]: > 100 µM (inactive) | GI50 [18]: > 100 µM (inactive) | GI50 [9]: > 100 µM (inactive) | GI50 [10]: > 100 µM (inactive) | GI50 [11]: > 100 µM (inactive) | GI50 [12]: > 100 µM (inactive) | GI50 [13]: > 100 µM (inactive) | GI50 [14]: > 100 µM (inactive) | GI50 [15]: > 100 µM (inactive)

CCOC(=O)C1C(=O)CC(C)(O)C(C(=O)OCC)C1c1ccc(N(C)C)cc1 (centres undefined)
GI50 [16]: > 100 µM (inactive) | GI50 [1]: > 100 µM (inactive) | GI50 [17]: > 100 µM (inactive) | GI50 [2]: > 100 µM (inactive) | GI50 [3]: > 100 µM (inactive) | GI50 [4]: > 100 µM (inactive) | GI50 [5]: > 100 µM (inactive) | GI50 [7]: > 100 µM (inactive) | GI50 [8]: > 100 µM (inactive) | GI50 [18]: > 100 µM (inactive) | GI50 [9]: > 100 µM (inactive) | GI50 [10]: > 100 µM (inactive) | GI50 [11]: > 100 µM (inactive) | GI50 [12]: > 100 µM (inactive) | GI50 [13]: > 100 µM (inactive) | GI50 [14]: > 100 µM (inactive) | GI50 [15]: > 100 µM (inactive)

Nc1ncnc2ccc(Sc3ccc4ncnc(N)c4c3)cc12
GI50 [16]: > 100 µM (inactive) | GI50 [1]: > 100 µM (inactive) | GI50 [17]: > 100 µM (inactive) | GI50 [3]: > 100 µM (inactive) | GI50 [4]: > 100 µM (inactive) | GI50 [5]: > 100 µM (inactive) | GI50 [7]: > 100 µM (inactive) | GI50 [8]: > 100 µM (inactive) | GI50 [18]: > 100 µM (inactive) | GI50 [9]: > 100 µM (inactive) | GI50 [10]: > 100 µM (inactive) | GI50 [11]: > 100 µM (inactive) | GI50 [12]: > 100 µM (inactive) | GI50 [13]: > 100 µM (inactive) | GI50 [14]: > 100 µM (inactive) | GI50 [15]: > 100 µM (inactive)

CCc1cc2c(oc3cc(C)ccc32)c(=O)n1C
GI50 [2]: > 10 µM (inactive) | GI50 [3]: > 10 µM (inactive) | GI50 [5]: > 10 µM (inactive) | GI50 [6]: > 10 µM (inactive) | GI50 [7]: > 10 µM (inactive) | GI50 [8]: > 10 µM (inactive) | GI50 [9]: > 10 µM (inactive) | GI50 [10]: > 10 µM (inactive) | GI50 [11]: > 10 µM (inactive) | GI50 [12]: > 10 µM (inactive) | GI50 [13]: > 10 µM (inactive) | GI50 [14]: > 10 µM (inactive)

NC(=O)CN1CC(C2=C(O)CN(CC(N)=O)C2=O)=CC1=O
GI50 [16]: > 100 µM (inactive) | GI50 [1]: > 100 µM (inactive) | GI50 [17]: > 100 µM (inactive) | GI50 [2]: > 100 µM (inactive) | GI50 [3]: > 100 µM (inactive) | GI50 [4]: > 100 µM (inactive) | GI50 [5]: > 100 µM (inactive) | GI50 [7]: > 100 µM (inactive) | GI50 [8]: > 100 µM (inactive) | GI50 [18]: > 100 µM (inactive) | GI50 [9]: > 100 µM (inactive) | GI50 [10]: > 100 µM (inactive) | GI50 [11]: > 100 µM (inactive) | GI50 [12]: > 100 µM (inactive) | GI50 [13]: > 100 µM (inactive) | GI50 [14]: > 100 µM (inactive) | GI50 [15]: > 100 µM (inactive)

CC(=O)Nc1ccc2c(c1)[nH]c(=O)c1cc(Cl)ccc12
GI50 [16]: 29.3 µM (inactive) | GI50 [1]: 0.51 µM (active) | GI50 [17]: 47.2 µM (inactive) | GI50 [2]: 38.5 µM (inactive) | GI50 [3]: 17.4 µM (inactive) | GI50 [4]: 33 µM (inactive) | GI50 [5]: 19.5 µM (inactive) | GI50 [7]: 17.1 µM (inactive) | GI50 [8]: 10.2 µM (inactive) | GI50 [18]: 48.8 µM (inactive) | GI50 [9]: 27 µM (inactive) | GI50 [10]: 10 µM (inactive) | GI50 [12]: 46.6 µM (inactive) | GI50 [13]: 52.4 µM (inactive) | GI50 [14]: 27.7 µM (inactive) | GI50 [15]: 12.3 µM (inactive)

CS(=O)(=O)CCC1CCC(=O)O1 (centres undefined)
GI50 [16]: > 100 µM (inactive) | GI50 [1]: > 100 µM (inactive) | GI50 [2]: > 100 µM (inactive) | GI50 [3]: 48.6 µM (inactive) | GI50 [4]: 40.5 µM (inactive) | GI50 [5]: 20.6 µM (inactive) | GI50 [7]: > 100 µM (inactive) | GI50 [8]: > 100 µM (inactive) | GI50 [18]: > 100 µM (inactive) | GI50 [9]: > 100 µM (inactive) | GI50 [10]: > 100 µM (inactive) | GI50 [11]: > 100 µM (inactive) | GI50 [13]: 97.9 µM (inactive) | GI50 [14]: > 100 µM (inactive)
